Laboratory results reported in ChEMBL document CHEMBL1201862, “PubChem BioAssay data set” (2004).
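Step 1: Grow cells in 96-well plates. Step 2: Expose to compound for 48 hours at 5 concentrations. Step 3: Interpolate endpoints linearly; if unreached, use highest concentration. At the GI50, growth is halved.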 The source made the active and inactive calls. Cut-off read from the data, not from the text of the source: active = GI50 up to about 1.1 µM and inactive = higher.

How the values were obtained:
Assay in all cases: DTP human tumour cell line panel, 48 h
[1] = system: 786-0
[2] = system: EKVX
[3] = system: HOP-92
[4] = system: HT-29
[5] = system: KM12
[6] = system: MDA-MB-435
[7] = system: NCI-H23
[8] = system: NCI-H522
[9] = system: OVCAR-3
[10] = system: OVCAR-8
[11] = system: RPMI-8226
[12] = system: SF-295
[13] = system: SK-MEL-28
[14] = system: SK-MEL-5
[15] = system: SNB-19
[16] = system: SW-620
[17] = system: UACC-62
[18] = system: RXF 393
[19] = system: SNB-75

Measured: GI50

CCC1C(C#N)=C(N)OC2=C1C(=O)CC(C)(C)C2 (stereo not drawn)
inactive: [1] > 100 µM | [2] > 100 µM | [3] > 100 µM | [4] > 100 µM | [5] > 100 µM | [6] > 100 µM | [7] > 100 µM | [8] > 100 µM | [9] > 100 µM | [10] > 100 µM | [11] > 100 µM | [12] > 100 µM | [13] > 100 µM | [14] > 100 µM | [15] > 100 µM | [16] > 100 µM | [17] > 100 µM

CC(=O)NC(CCCN(Cc1ccccc1)C(=O)NCCCl)C(=O)NCc1ccccc1 (stereo not drawn)
inactive: [1] > 100 µM | [2] > 100 µM | [3] > 79.4 µM | [4] > 100 µM | [5] > 100 µM | [7] > 100 µM | [8] > 100 µM | [9] > 100 µM | [10] > 100 µM | [11] > 100 µM | [18] > 100 µM | [12] > 100 µM | [13] > 100 µM | [14] > 100 µM | [15] > 100 µM | [19] > 69.5 µM | [16] > 100 µM | [17] > 100 µM

Sc1nnc(CCCCCCCCc2nnc(S)o2)o1
inactive: [1] > 100 µM | [2] > 100 µM | [4] > 100 µM | [5] > 100 µM | [6] > 100 µM | [7] > 100 µM | [9] > 100 µM | [10] > 100 µM | [18] > 100 µM | [12] > 100 µM | [13] > 100 µM | [14] > 100 µM | [15] > 100 µM | [19] > 100 µM | [16] > 100 µM

Cc1ccc(S(=O)(=O)N/N=C(\c2nc3ccc(Cl)cc3nc2O)C(O)c2cccc([N+](=O)[O-])c2)cc1 (stereo not drawn)
inactive: [1] > 100 µM | [2] > 100 µM | [3] > 100 µM | [4] > 100 µM | [5] > 100 µM | [7] > 100 µM | [8] 63.4 µM | [9] > 100 µM | [10] > 100 µM | [11] 71 µM | [18] > 100 µM | [12] > 100 µM | [13] > 100 µM | [14] > 100 µM | [15] > 100 µM | [19] > 100 µM | [16] > 100 µM | [17] > 100 µM
